# Source: ChEMBL document CHEMBL5506031, “Design, Synthesis, Bioactive Evaluation, and Molecular Dynamics Simulation of Novel 4H-Pyrano[3,2-c]pyridine Analogues as Potential Sterol 14α-Demethylase (CYP51) Inhibitors” (J Med Chem, 2024)
# The source made the active and inactive calls. The calls are words filed in the database; no cut-off is given here.
# How the values were obtained:
# Alternaria alternata = assay: Antifungal activity against Alternaria alternata assessed as fungal inhibition rate at 100 ug/ml relative to control; assay type: functional
# Alternaria solani = assay: Antifungal activity against Alternaria solani assessed as fungal inhibition rate at 100 ug/ml relative to control; assay type: functional
# Sclerotinia sclerotiorum = assay: Fungicidal activity against Sclerotinia sclerotiorum assessed as fungal inhibitory rate at 16 ug/ml relative to control; assay type: functional
# Botrytis cinerea [1] = assay: Induction of morphological changes in Botrytis cinerea assessed as cracked cell structure at 0.5 ug/ml incubated for 6 days by TEM analysis; assay type: functional, organism-based; conditions: dose 0.5 µg/ml, time 6.0 day
# Botrytis cinerea [2] = assay: Fungicidal activity against Botrytis cinerea assessed as fungal inhibitory rate at 16 ug/ml relative to control; assay type: functional
# [3] = Inhibition of Botrytis cinerea CYP51 by ELISA
# Botrytis cinerea [4] = assay: Induction of morphological changes in Botrytis cinerea assessed as uneven mycelia at 0.5 ug/ml incubated for 6 days by SEM analysis; assay type: functional, organism-based; conditions: dose 0.5 µg/ml, time 6.0 day
# Botrytis cinerea [5] = assay: Induction of morphological changes in Botrytis cinerea assessed as tangled mycelia at 0.5 ug/ml incubated for 6 days by SEM analysis; assay type: functional, organism-based; conditions: dose 0.5 µg/ml, time 6.0 day
# Botrytis cinerea [6] = assay: Induction of morphological changes in Botrytis cinerea assessed as thin cell wall at 0.5 ug/ml incubated for 6 days by TEM analysis; assay type: functional, organism-based; conditions: dose 0.5 µg/ml, time 6.0 day
# Botrytis cinerea [7] = assay: Fungicidal activity against Botrytis cinerea assessed as fungal growth reduction; assay type: functional, organism-based
# Penicillium digitatum = assay: Fungicidal activity against Penicillium digitatum assessed as fungal inhibitory rate at 16 ug/ml relative to control; assay type: functional
# Botrytis cinerea [8] = assay: Induction of morphological changes in Botrytis cinerea assessed as irregular mycelia at 0.5 ug/ml incubated for 6 days by SEM analysis; assay type: functional, organism-based; conditions: dose 0.5 µg/ml, time 6.0 day
# Fusarium oxysporum = assay: Fungicidal activity against Fusarium oxysporum assessed as fungal inhibitory rate at 16 ug/ml relative to control; assay type: functional
# Colletotrichum lagenaria = assay: Fungicidal activity against Colletotrichum lagenarium assessed as fungal inhibitory rate at 16 ug/ml relative to control; assay type: functional
# Botrytis cinerea [9] = assay: Inhibition of Botrytis cinerea CYP51 by fluorescent quenching analysis; conditions: dose <= 16.0 µg/ml
# Botrytis cinerea [10] = assay: Induction of morphological changes in Botrytis cinerea assessed as thin cell membrane at 0.5 ug/ml incubated for 6 days by TEM analysis; assay type: functional, organism-based; conditions: dose 0.5 µg/ml, time 6.0 day
# Botrytis cinerea [11] = assay: Induction of morphological changes in Botrytis cinerea assessed as crinkly mycelia at 0.5 ug/ml incubated for 6 days by SEM analysis; assay type: functional, organism-based; conditions: dose 0.5 µg/ml, time 6.0 day
# Candida albicans = assay: Antifungal activity against Candida albicans; assay type: functional
# Aspergillus flavus = assay: Antifungal activity against Aspergillus flavus; assay type: functional
# Aspergillus niger = assay: Antifungal activity against Aspergillus niger; assay type: functional
structure (smiles),measurement,setting,value
Cc1cc(C)c2c(=O)oc3cc(OC(=O)C(C)Br)ccc3c2n1 (stereo not drawn),inhibition at 100 µg/mL,Alternaria alternata,41.6%
same,inhibition at 100 µg/mL,Alternaria solani,52.4%
Fc1ccc([C@@]2(Cn3cncn3)O[C@@H]2c2ccccc2Cl)cc1,inhibition at 16 µg/mL,Sclerotinia sclerotiorum,100%
same,Activity,Botrytis cinerea [1],Active
same,inhibition at 16 µg/mL,Botrytis cinerea [2],100%
same,IC50,[3],0.802 µg/mL
same,Activity,Botrytis cinerea [4],Active
same,Activity,Botrytis cinerea [5],Active
same,Activity,Botrytis cinerea [6],Active
same,EC50,Botrytis cinerea [7],0.67 µg/mL
same,inhibition at 16 µg/mL,Penicillium digitatum,78.6%
same,Activity,Botrytis cinerea [8],Active
same,inhibition at 16 µg/mL,Fusarium oxysporum,87.3%
same,inhibition at 16 µg/mL,Colletotrichum lagenaria,94.3%
same,inhibition,Botrytis cinerea [9],Dose-Dependent Effect
same,Activity,Botrytis cinerea [10],Active
same,Activity,Botrytis cinerea [11],Active
COC(=O)C1=C(C)OC(N)=C(C#N)C1c1ccc(F)cc1 (stereo not drawn),MIC,Candida albicans,12.5 µg/mL
same,MIC,Aspergillus flavus,12.5 µg/mL
CCOC(=O)c1c(C)nc2c(c1C)c(=O)oc1c(OC(=O)C(Br)CC)cccc12 (stereo not drawn),inhibition at 100 µg/mL,Alternaria alternata,62.1%
same,inhibition at 100 µg/mL,Alternaria solani,54.6%
COc1ccc(NC(=O)c2cc3c(CO)cnc(C)c3o/c2=N\c2ccc(Cl)c(C)c2)cc1,MIC,Candida albicans,12.5 µg/mL
CC1(C)CC(=O)C2=C(C1)OC(N)=C(C#N)C2c1ccc(F)cc1 (stereo not drawn),MIC,Aspergillus niger,12.5 µg/mL
same,MIC,Aspergillus flavus,12.5 µg/mL
CC1(C)CC(=O)C2=C(C1)OC(N)=C(C#N)C2c1ccco1 (stereo not drawn),MIC,Aspergillus niger,12.5 µg/mL
same,MIC,Candida albicans,12.5 µg/mL
CCCC(Br)C(=O)Oc1ccc2c(c1)oc(=O)c1c(C)c(C(=O)OCC)c(C)nc12 (stereo not drawn),inhibition at 100 µg/mL,Alternaria alternata,44.6%
same,inhibition at 100 µg/mL,Alternaria solani,40.7%
COC(=O)C1=C(N)OC2=C(CN(C(=O)c3ccco3)C/C2=C\c2ccc(Br)o2)C1c1ccc(Br)o1 (stereo not drawn),inhibition at 16 µg/mL,Sclerotinia sclerotiorum,82.7%
same,Activity,Botrytis cinerea [1],Active
same,inhibition at 16 µg/mL,Botrytis cinerea [2],100%
same,IC50,[3],0.611 µg/mL
same,Activity,Botrytis cinerea [4],Active
same,Activity,Botrytis cinerea [5],Active
same,Activity,Botrytis cinerea [6],Active
same,EC50,Botrytis cinerea [7],0.53 µg/mL
same,inhibition at 16 µg/mL,Penicillium digitatum,76%
same,Activity,Botrytis cinerea [8],Active
same,inhibition at 16 µg/mL,Fusarium oxysporum,83.5%
same,inhibition at 16 µg/mL,Colletotrichum lagenaria,84.9%
same,inhibition,Botrytis cinerea [9],Dose-Dependent Effect
same,Activity,Botrytis cinerea [10],Active
same,Activity,Botrytis cinerea [11],Active
